According to patent US20220372498A1, “STABILIZER FOR ADENO-ASSOCIATED VIRUSES AND METHOD FOR STABILIZING ADENO-ASSOCIATED VIRUSES BY USING SAME” (priority 2020, published 2022):

How the values were obtained:
[1] = tested on: adeno-associated virus serotype 9 (AAV 9); assay: Crystal formation and average particle size after mixing surfactant-treated AAV solution with tannic acid solution (DLS, microscope); format: physicochemical; conditions: surfactant 0.05% (w/w) in AAV solution (PBS, pH 7.4) + 0.5 mM tannic acid, after about 10 minutes
Procedure: The present inventors tried to check the change in AAV stability by treating a surfactant to solve the problem of AAV aggregation when preparing a gene delivery system using AAV. To this end, the effect was verified for various types of surfactants known in the art. More specifically, after mixing 50 uL of 0.5 mM tannic acid solution with 1×108 genome/ul AAV solution in which each of Tween 80, Triton X, CHAPS, cetrimonium bromide (CTAB), and sodium deoxycholate was present in a concentration of 0.05% (w/w) (PBS, pH 7.4), and then after about 10 minutes, the average particle size was measured through dynamic light scattering (DLS), and the formation of crystals that could cause blood vessel clogging was observed under a microscope. At this time, as a condition not treated with a surfactant, 50 uL of a 1×108 genome/ul AAV solution (PBS, pH 7.4) was mixed with 50 uL of 0.5 mM tannic acid solution, and average particle size measurement and microscopic observation were performed in the same manner as above.

[2] = tested on: adeno-associated virus serotype 9 (AAV 9); assay: AAV stability according to surfactant concentration (UV-Vis absorbance 600 nm scattering, microscope); format: physicochemical; conditions: 0.5 mM tannic acid
Procedure: 50 uL of 0.5 mM tannic acid solution was mixed with 1×108 genome/ul AAV solution in which Tween 80, a nonionic surfactant, is present in a concentration of 0.2%, 0.05%, 0.0125%, and 0.003% (w/w) (PBS, pH 7.4), respectively, and about 5 minutes after, UV-Vis absorbance in the 600 nm wavelength band was measured for scattering, and crystal formation was observed under a microscope.
In addition, under conditions in which Triton X, another nonionic surfactant, is present in a concentration of 0.05%, 0.0125, 0.003%, and 0.0008% (w/w), respectively, AAV and tannic acid solutions were mixed in the same method as above, and the same experiment was performed, and the result was observed.
(§1) 50 uL of 0.5 mM tannic acid solution was mixed with 1×108 genome/ul AAV solution in which the zwitterionic surfactant CHAPS is present in a concentration of 0.4%, 0.1%, 0.025%, 0.006% (w/w) (PBS, pH 7.4), respectively, and after about 5 minutes, UV-Vis absorbance in the 600 nm wavelength band was measured for scattering, and crystal formation was observed under a microscope.
as §1, with “cationic” for “zwitterionic”, “CTAB” for “CHAPS”
as §1, with “anionic” for “zwitterionic”, “sodium deoxycholate” for “CHAPS”, “0.2%, 0.05%, 0.0125%, […]” for “0.4%, 0.1%, 0.025%, 0.006%”

[3] = tested on: adeno-associated virus serotype 9 (AAV 9); assay: Crystal formation after mixing FBS with surfactant-containing AAV and tannic acid (microscope); format: physicochemical; conditions: surfactant 0.05% (w/w), 0.5 mM tannic acid, then 50 uL of 10% FBS
Procedure: Furthermore, the present inventors have attempted to verify whether the formation of a potential crystal structure that may block blood vessels when mixed with plasma may be suppressed through the treatment of a surfactant additionally. To this end, 50 uL of 0.5 mM tannic acid solution was mixed with 50 uL of 1×108 genome/ul AAV solution (PBS, pH 7.4) containing each of CTAB, Tween 80, and CHAPS in a concentration of 0.05% (w/w), and then about 5 minutes after, 50 uL of 10% FBS solution was mixed and observed whether crystals of 10 μm or larger were formed under a microscope.

[4] = Viability of mice after tail vein injection of AAV / tannic acid / Tween 80 mixtures; conditions: in vivo
Excerpt: On the other hand, the presence or absence of the formation of such crystalline particles is one of the major factors affecting the survival of experimental animals in animal experiments. Crystalline particles of more than 10 μm can block capillaries in the body, and clogged blood vessels can cause ischemic disease, myocardial infarction, cerebral infarction, rupture of blood vessels, etc., and in severe cases, leading to death. Therefore, the present inventors tried to experimentally confirm how the crystallinity was confirmed in the results of FIG. 1A affects the survival of mice. To this end, 50 uL of 0.5 mM or 0.25 mM tannic acid solution was mixed with 50 uL of 2×109 genome/ul AAV solution containing Tween 80 in a concentration of 0.01% (w/w) (PBS, pH 7.4), and then viability was confirmed by injecting 100 uL of mixed solution into the tail vein of the mouse within about 30 minutes (0.01% (w/w) Tween 80+0.5 mM TA+AAV/0.01% (w/w) Tween 80+0.25 mM TA+AAV). In addition, as a condition with the absence of surfactant, 50 uL of 2×109 genome/ul AAV solution without Tween 80 was mixed with tannic acid under the same conditions and injected into the tail vein of mice (0.5 mM TA+AAV/0.25 mM TA+AAV). […]

[5] = tested on: adeno-associated virus serotype 9 (AAV 9); assay: AAV stability with albumin alone (DLS, microscope); format: physicochemical; conditions: 0.5 mM tannic acid, about 10 minutes
Procedure: 50 uL of 0.5 mM tannic acid solution was mixed with 1×108 genome/ul AAV solution in which the albumin is present at various concentrations of 10%, 1%, 0.1%, 0.01% (w/w) (PBS, pH 7.4), respectively, and after about 10 minutes, the average particle size was measured through dynamic light scattering, and particle formation was observed under a microscope.

[6] = tested on: adeno-associated virus serotype 9 (AAV 9); assay: In vitro stability of particle size over time (DLS; UV-Vis 600 nm scattering); format: physicochemical; conditions: surfactant 0.05% (w/w); 0 min, 30 min, 1 day; compared among Tween 80, CHAPS, sodium deoxycholate
Procedure: The size and shape of AAV particles must be maintained constantly from mixing to injection. Therefore, it was analyzed whether the particle size was maintained until after 30 minutes, which is a time taken from mixing to injection, and a sufficient time, one day. To this end, 50 uL of 0.5 mM tannic acid solution was mixed with 1×108 genome/ul AAV solution in which Tween 80 is present in a concentration of 0.01% (w/w) (PBS, pH 7.4), and then, after about 5 minutes, the average particle sizes were measured at 0 min, […], and 1 day, respectively, through a dynamic light scattering method, and the increase in particle sizes was compared with the initial value.
In addition, 50 uL of 0.5 mM tannic acid solution was mixed with 1×108 genome/ul AAV solution in which various types of surfactants, i.e., Tween 80, CHAPS, and sodium deoxycholate are present in a concentration of 0.05% (w/w) each (PBS, pH 7.4), and then, after about 5 minutes, UV-Vis absorbance of each 600 nm wavelength band was measured at 0 min (min), 30 min, and 1 day (day) to measure the scattering degree. The change in particle size over time was analyzed through an increase in scattering compared to the initial value.

[7] = surfactant 0.006% (w/w), PBS pH 7.4, about 5 minutes
[8] = surfactant 0.025% (w/w), PBS pH 7.4, about 5 minutes
[9] = surfactant 0.4% (w/w), PBS pH 7.4, about 5 minutes
[10] = surfactant 0.003% (w/w), PBS pH 7.4, about 5 minutes
[11] = surfactant 0.0125% (w/w), PBS pH 7.4, about 5 minutes

## sodium deoxycholate
[1]
  formation of crystalline particles in which AAV was aggregated (microscope): large fibrous particles were observed
[2]; all concentrations: 0.2%, 0.05%, 0.0125%, 0.0003% (w/w), PBS pH 7.4
  particle / crystal formation: crystal structure was formed

## C[C@H](CCC(=O)NCCC[N+](C)(C)CCCS(=O)(=O)[O-])[C@H]1CC[C@H]2[C@@H]3[C@H](O)C[C@@H]4C[C@H](O)CC[C@]4(C)[C@H]3C[C@H](O)[C@]12C [CHAPS, 3-[(3-cholamidopropyl)dimethylammonio]-1-propanesulfonate]
[1]
  formation of crystalline particles in which AAV was aggregated (microscope): not observed
[2]; [7]
  particle / crystal formation: crystal structure was formed
[2]; [8]
  particle / crystal formation: nano-sized particles were formed
[2]; surfactant 0.1% (w/w), PBS pH 7.4, about 5 minutes
  particle / crystal formation: crystal structure was formed
[2]; [9]
  particle / crystal formation: crystal structure was formed
[3]
  formation of crystals of 10 μm or larger after mixing FBS: crystals are not formed

## O=C(OC[C@H]1O[C@@H](OC(=O)c2cc(O)c(O)c(OC(=O)c3cc(O)c(O)c(O)c3)c2)[C@H](OC(=O)c2cc(O)c(O)c(OC(=O)c3cc(O)c(O)c(O)c3)c2)[C@@H](OC(=O)c2cc(O)c(O)c(OC(=O)c3cc(O)c(O)c(O)c3)c2)[C@@H]1OC(=O)c1cc(O)c(O)c(OC(=O)c2cc(O)c(O)c(O)c2)c1)c1cc(O)c(O)c(OC(=O)c2cc(O)c(O)c(O)c2)c1 [TA, tannic acid]
[4]
  Result (viability of mouse): Survival

## albumin
[5]; albumin 0.01% (w/w)
  particle / crystal formation: crystal structure was formed
[5]; albumin 0.1% (w/w)
  particle / crystal formation: micro-sized particles were formed
[5]; albumin 1% (w/w)
  particle / crystal formation: crystal structure was formed
[5]; albumin 10% (w/w)
  particle / crystal formation: crystal structure was formed

## Tween 80
[1]
  formation of crystalline particles in which AAV was aggregated (microscope): not observed
[2]; [10]
  particle / crystal formation: crystal structure was formed
[2]; [11]
  particle / crystal formation: nano-sized particles
[2]; surfactant 0.2% (w/w), PBS pH 7.4, about 5 minutes
  particle / crystal formation: crystal structure was formed
[3]
  formation of crystals of 10 μm or larger after mixing FBS: crystals are not formed
[6]
  change in particle size over time (increase in scattering, UV-Vis 600 nm): most stably maintained

## CCCCCCCCCCCCCCCC[N+](C)(C)C.[Br-] [CTAB, cetrimonium bromide]
[1]
  formation of crystalline particles in which AAV was aggregated (microscope): not observed
[2]; [7]
  particle / crystal formation: crystal structure was formed
[2]; [8]
  particle / crystal formation: nano-sized particles
[2]; [9]
  particle / crystal formation: crystal structure was formed
[3]
  formation of crystals of 10 μm or larger after mixing FBS: crystals are not formed

## Triton X
[1]
  formation of crystalline particles in which AAV was aggregated (microscope): not observed
[2]; surfactant 0.0008% (w/w), PBS pH 7.4, about 5 minutes
  particle / crystal formation: nano-sized particles were formed
[2]; [10]
  particle / crystal formation: nano-sized particles were formed
[2]; [11]
  particle / crystal formation: crystal structure was formed
[2]; surfactant 0.05% (w/w), PBS pH 7.4, about 5 minutes
  particle / crystal formation: crystal structure was formed
